Reference: patent US11999739B2, “Antimicrobials methods of making and using the same” (BIOVERSYS AG, priority 2016, dated 2024)

Assays:
[1] = test system: Staphylococcus aureus (S. aureus) 11540 strain; experiment: Standard microdilution MIC assay, S. aureus; type: cell-based
Procedure, shortened: (§1)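 MICs obtained by CLSI-standard microdilution, quality-controlled with reference strains in parallel. Values reported as + or − relative to a 16 micrograms/mL cutoff.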

[2] = test system: Escherichia coli strain ATCC25922; experiment: Standard microdilution MIC assay, E. coli; type: cell-based
Procedure, shortened: as §1

[3] = Rat five day safety study (bodyweight gain, reticulocyte count change); type: in vivo; details: male Sprague-Dawley juvenile rats, n=5, once daily slow intravenous infusion for 5 days at or near maximum-tolerated dose; for BW Result: bodyweight gain; for Hematology Result: reticulocyte count change
Experimental: The compounds of the present disclosure were tested for safety in a multi-day dosing study in rat. Key parameters that were monitored are bodyweight gain and hematological changes, particularly changes in reticulocyte counts. Male Sprague-Dawley (CD) juvenile rats were received from Charles River with double jugular vein catheters. For each compound, n=5. […] Bodyweights were recorded daily for the first 5 days (during the dosing period), then 2 to 3 times per week thereafter. Blood was collected via a jugular vein catheter into EDTA anti-coagulated tubes for complete blood counts (CBC) on Days 0 (baseline), 3 and 7. On Day 22, blood was drawn via a cardiac puncture into EDTA coated tubes for final CBC, and serum separator tubes for the complete clinical chemistry profile. The blood that was collected into serum separator tubes was allowed to clot at room temperature for approximately 30 minutes, spun in a centrifuge at 2000 rpm, and the resulting serum was aliquoted. All samples were sent on wet ice to Charles River Labs for analysis.

For C=C[C@@H](CCNC(=N)CF)NCc1ccc(-n2cc3cc(-c4cc(CCC[C@H](C)N)cc(Cl)c4F)[nH]c3nc2=O)cc1 [Compound 23], the MIC [1] was at most 16 µg/mL, the MIC [2] was at most 16 µg/mL and the “BW Result” value [3] was “+ (a “+” in “BW result” indicates that the rat exhibited a weight gain of 20% or more)”. For the same compound, the “Hematology Result” value [3] was “+ (a “+” in “Hematology result” indicates indicates that the rat exhibited a reticulocyte count change of 65% or less)”.

With C=C[C@@H](N)CCCc1cc(Cl)c(F)c(-c2cc3cn(-c4ccc([C@@H]5CCC[C@@H](CCNC(C)=N)N5)cc4)c(=O)nc3[nH]2)c1 [Compound 36] the MIC [1] was at most 16 µg/mL, the MIC [2] was at most 16 µg/mL and the “Hematology Result” value [3] was “− (a “−” indicates indicates that the rat exhibited a reticulocyte count change of greater than 65%)”.

For CC(=N)NCC[C@@H]1CNC[C@@H](c2ccc(-n3cc4cc(-c5cc(CCC[C@H](C)N)cc(Cl)c5F)[nH]c4nc3=O)cc2)N1 [Compound 50], the MIC [1] was at most 16 µg/mL, the MIC [2] was at most 16 µg/mL and the “BW Result” value [3] was “+ (a “+” in “BW result” indicates that the rat exhibited a weight gain of 20% or more)”. The “Hematology Result” value [3] was “+ (a “+” in “Hematology result” indicates indicates that the rat exhibited a reticulocyte count change of 65% or less)”.

With CC(=N)NCCCN[C@@H](C)c1ccc(-n2cc3cc(-c4cc(CCC[C@H](C)N)cc(Cl)c4F)[nH]c3nc2=O)cc1 [Compound 110] the MIC [1] was at most 16 µg/mL, the MIC [2] was at most 16 µg/mL and the “BW Result” value [3] was “− (a “−” indicates that the rat exhibited a weight gain of less than 20%)”. The “Hematology Result” value [3] was “− (a “−” indicates indicates that the rat exhibited a reticulocyte count change of greater than 65%)”.

With CC(=N)NCC[C@@H]1CCC[C@@H](c2ccc(-n3cc4cc(-c5cc(CCC[C@H](C)N)cc(Cl)c5F)[nH]c4nc3=O)cc2S(C)(=O)=O)N1 [Compound 117] the MIC [1] was at most 16 µg/mL, the MIC [2] was at most 16 µg/mL and the “BW Result” value [3] was “− (a “−” indicates that the rat exhibited a weight gain of less than 20%)”. The “Hematology Result” value [3] was “+ (a “+” in “Hematology result” indicates indicates that the rat exhibited a reticulocyte count change of 65% or less)”.

For CC(=N)NCC[C@@H](NCc1ccc(-n2cc3cc(-c4cc(CCC[C@H](C)N)cc(Cl)c4F)[nH]c3nc2=O)cc1)C1CC1 [Compound 119], the MIC [1] was at most 16 µg/mL, the MIC [2] was at most 16 µg/mL and the “BW Result” value [3] was “− (a “−” indicates that the rat exhibited a weight gain of less than 20%)”. For the same compound, the “Hematology Result” value [3] was “− (a “−” indicates indicates that the rat exhibited a reticulocyte count change of greater than 65%)”.

For CSc1cc(-n2cc3cc(-c4cc(CCC[C@@H](N)C5CC5)cc(Cl)c4F)[nH]c3nc2=O)ccc1[C@@H]1CCC[C@@H](CCNC(C)=N)N1 [Compound 120], the MIC [1] was at most 16 µg/mL, the MIC [2] was at most 16 µg/mL and the “BW Result” value [3] was “+ (a “+” in “BW result” indicates that the rat exhibited a weight gain of 20% or more)”. The “Hematology Result” value [3] was “+ (a “+” in “Hematology result” indicates indicates that the rat exhibited a reticulocyte count change of 65% or less)”.

With CC(=N)NCC[C@@H]1CCC[C@@H](c2ccc(-n3cc4cc(-c5cc(CCC[C@@H](N)C6CC6)cc(Cl)c5F)[nH]c4nc3=O)cc2)N1C [Compound 123] the MIC [1] was at most 16 µg/mL, the MIC [2] was at most 16 µg/mL and the “BW Result” value [3] was “+ (a “+” in “BW result” indicates that the rat exhibited a weight gain of 20% or more)”. For the same compound, the “Hematology Result” value [3] was “+ (a “+” in “Hematology result” indicates indicates that the rat exhibited a reticulocyte count change of 65% or less)”.

With CC(=N)NCC[C@@H]1CCC[C@@H](c2c(F)cc(-n3cc4cc(-c5cc(CCC[C@H](C)N)cc(Cl)c5F)[nH]c4nc3=O)cc2F)N1 [Compound 127] the MIC [1] was at most 16 µg/mL, the MIC [2] was at most 16 µg/mL and the “BW Result” value [3] was “+ (a “+” in “BW result” indicates that the rat exhibited a weight gain of 20% or more)”. For the same compound, the “Hematology Result” value [3] was “+ (a “+” in “Hematology result” indicates indicates that the rat exhibited a reticulocyte count change of 65% or less)”.

In the case of CC(=N)NCC[C@@H]1CCC[C@@H](c2ccc(-n3cc4cc(-c5cc(CCC[C@H](C)N)cc(Cl)c5F)[nH]c4nc3=O)cc2F)N1 [Compound 152], the MIC [1] was at most 16 µg/mL, the MIC [2] was at most 16 µg/mL and the “BW Result” value [3] was “+ (a “+” in “BW result” indicates that the rat exhibited a weight gain of 20% or more)”. The “Hematology Result” value [3] was “+ (a “+” in “Hematology result” indicates indicates that the rat exhibited a reticulocyte count change of 65% or less)”.

For CC(=N)NCC[C@@H]1CCC[C@@H](c2ccc(-n3cc4cc(-c5cc(CCC[C@@H](N)CO)cc(Cl)c5F)[nH]c4nc3=O)cc2F)N1 [Compound 162], the MIC [1] was at most 16 µg/mL, the MIC [2] was at most 16 µg/mL and the “BW Result” value [3] was “− (a “−” indicates that the rat exhibited a weight gain of less than 20%)”. For the same compound, the “Hematology Result” value [3] was “− (a “−” indicates indicates that the rat exhibited a reticulocyte count change of greater than 65%)”.

For C=C[C@H](N)CCCc1cc(Cl)c(F)c(-c2cc3cn(-c4ccc([C@@H]5CCC[C@@H](CCNC(C)=N)N5)c(SC)c4)c(=O)nc3[nH]2)c1 [Compound 182], the MIC [1] was at most 16 µg/mL, the MIC [2] was at most 16 µg/mL and the “BW Result” value [3] was “− (a “−” indicates that the rat exhibited a weight gain of less than 20%)”. The “Hematology Result” value [3] was “− (a “−” indicates indicates that the rat exhibited a reticulocyte count change of greater than 65%)”.

With COC[C@H](N)CCCc1cc(-c2cc3cn(-c4ccc([C@@H]5CCC[C@@H](CCNC(C)=N)N5)cc4)c(=O)nc3[nH]2)c(F)c(C(F)(F)F)c1 [Compound 190] the MIC [1] was at most 16 µg/mL, the MIC [2] was at most 16 µg/mL and the “BW Result” value [3] was “− (a “−” indicates that the rat exhibited a weight gain of less than 20%)”. The “Hematology Result” value [3] was “− (a “−” indicates indicates that the rat exhibited a reticulocyte count change of greater than 65%)”.

In the case of COC[C@H](N)CCCc1cc(-c2cc3cn(-c4ccc([C@@H]5CCC[C@@H](CCNC(C)=N)N5)c(F)c4)c(=O)nc3[nH]2)c(F)c(C(F)(F)F)c1 [Compound 191], the MIC [1] was at most 16 µg/mL, the MIC [2] was at most 16 µg/mL and the “BW Result” value [3] was “+ (a “+” in “BW result” indicates that the rat exhibited a weight gain of 20% or more)”. For the same compound, the “Hematology Result” value [3] was “+ (a “+” in “Hematology result” indicates indicates that the rat exhibited a reticulocyte count change of 65% or less)”.

With COC[C@H](N)CCCc1cc(OC(F)(F)F)c(F)c(-c2cc3cn(-c4ccc([C@@H]5CCC[C@@H](CCNC(C)=N)N5)c(F)c4)c(=O)nc3[nH]2)c1 [Compound 196] the MIC [1] was at most 16 µg/mL, the MIC [2] was at most 16 µg/mL and the “BW Result” value [3] was “+ (a “+” in “BW result” indicates that the rat exhibited a weight gain of 20% or more)”. For the same compound, the “Hematology Result” value [3] was “+ (a “+” in “Hematology result” indicates indicates that the rat exhibited a reticulocyte count change of 65% or less)”.

With COC[C@H](N)CCCc1cc(-c2cc3cn(-c4ccc([C@@H]5CCC[C@@H](CCNC(C)=N)N5)c(SC)c4)c(=O)nc3[nH]2)c(F)c(C(F)(F)F)c1 [Compound 199] the MIC [1] was at most 16 µg/mL, the MIC [2] was at most 16 µg/mL and the “BW Result” value [3] was “+ (a “+” in “BW result” indicates that the rat exhibited a weight gain of 20% or more)”. The “Hematology Result” value [3] was “− (a “−” indicates indicates that the rat exhibited a reticulocyte count change of greater than 65%)”.

With C=C[C@H](N)CCCc1cc(Cl)c(F)c(-c2cc3cn(-c4ccc([C@@H]5CCC[C@@H](CCNC(C)=N)N5CCCF)c(F)c4)c(=O)nc3[nH]2)c1 [Compound 355] the MIC [1] was at most 16 µg/mL and the MIC [2] was at most 16 µg/mL.

COCC(=N)NCC[C@@H]1CCC[C@@H](c2ccc(-n3cc4cc(-c5cc(CCC[C@H](C)N)cc(Cl)c5F)[nH]c4nc3=O)cc2)N1 [Compound 356] showed an MIC [1] of at most 16 µg/mL and an MIC [2] of at most 16 µg/mL.

Compound C[C@H](N)CCCc1cc(Cl)c(F)c(-c2cc3cn(-c4ccc([C@@H]5CCC[C@@H](CCNC(=N)CCO)N5)cc4)c(=O)nc3[nH]2)c1 [Compound 357] has an MIC [1] of at most 16 µg/mL and an MIC [2] of at most 16 µg/mL.

With COC[C@H](N)CCCc1cc(Cl)c(F)c(-c2cc3cn(-c4ccc([C@@H]5CCC[C@@H](CCNC(C)=N)N5)nc4)c(=O)nc3[nH]2)c1 [Compound 358] the MIC [1] was at most 16 µg/mL and the MIC [2] was at most 16 µg/mL.

With COCCOCC(=N)NCC[C@@H]1CCC[C@@H](c2ccc(-n3cc4cc(-c5cc(CCC[C@H](C)N)cc(Cl)c5F)[nH]c4nc3=O)cc2)N1 [Compound 362] the MIC [1] was at most 16 µg/mL and the MIC [2] was at most 16 µg/mL.

Compound CC(=N)NC[C@@H]1CCC[C@@H](c2ccc(-n3cc4cc(-c5cc(CCC[C@H](C)N)cc(Cl)c5F)[nH]c4nc3=O)cc2)N1 [Compound 363] has an MIC [1] of at most 16 µg/mL and an MIC [2] of at most 16 µg/mL.

In the case of CC(=N)NCC[C@@H]1CCC[C@@H](c2ccc(-n3cc4cc(-c5cc(CCC[C@H](C)N)cc(Cl)c5F)[nH]c4nc3=O)cc2)N1CCF [Compound 364], the MIC [1] was at most 16 µg/mL and the MIC [2] was at most 16 µg/mL.

CC(=N)NCC[C@@H]1CCC[C@@H](c2ccc(-n3cc4cc(-c5cc(CCC[C@H](C)N)cc(Cl)c5F)[nH]c4nc3=O)cc2)N1C[C@@H](C)CO [Compound 365] gave an MIC [1] of at most 16 µg/mL and an MIC [2] of at most 16 µg/mL.

For CC(=N)NCC[C@@H]1CCC[C@@H](c2ccc(-n3cc4cc(-c5cc(CCC[C@H](C)N)cc(Cl)c5F)[nH]c4nc3=O)cc2)N1C[C@H](C)CO [Compound 366], the MIC [1] was at most 16 µg/mL and the MIC [2] was at most 16 µg/mL.

With CC(=N)NCC[C@@H]1CCC[C@@H](c2ccc(-n3cc4cc(-c5cc(CCC[C@H](C)N)cc(Cl)c5F)[nH]c4nc3=O)cc2)N1CC(C)C [Compound 369] the MIC [1] was at most 16 µg/mL and the MIC [2] was at most 16 µg/mL.

CC(=N)NCC[C@@H]1CCC[C@@H](c2ccc(-n3cc4cc(-c5cc(Cl)cc(CCC[C@H](C)N)c5)[nH]c4nc3=O)cc2)N1 [Compound 370] gave an MIC [1] of at most 16 µg/mL and an MIC [2] of at most 16 µg/mL.

For COc1ccc(CCC[C@H](C)N)cc1-c1cc2cn(-c3ccc([C@@H]4CCC[C@@H](CCNC(C)=N)N4)cc3)c(=O)nc2[nH]1 [Compound 377], the MIC [1] was at most 16 µg/mL and the MIC [2] was at most 16 µg/mL.
